The values that follow come from patent publication US8962641B2, “Pyrimidine-substituted pyrrolidine derivatives, pharmaceutical compositions and uses thereof” (Boehringer Ingelheim International GmbH, priority 2013, dated 2015).

Read-outs that look alike come from different tables or passages of the source.

The term IC50 denotes the midpoint of a concentration-inhibition curve.

The target in this assay is human ACC2 (Homo sapiens (Human), UniProt O00763). In words: ACC2 assay (spectrophotometric 384 well assay, NADH-linked kinetic method). The format is biochemical. How it is done:
Spectrophotometric 384 Well Assay
Malonyl CoA formation by acetyl CoA carboxylases is stoichometrically linked to the consumption of ATP. ACC2 activity is measured in a NADH-linked kinetic method measuring ADP generated during the ACC reaction using a coupled lactate dehydrogenase/pyruvate kinase reaction.
The protein is then expressed in insect cells using a baculoviral expression system. Protein purification is performed by anion exchange.
All compounds are dissolved in dimethyl sulfoxide (DMSO) to a concentration of 10 mM.
The enzymatic reaction is then started by addition of a mixture of NADH, acetyl Coenzyme A (both 200 μM f.c.) and ATP (500 uM f.c.). The decrease of the optical density (slope S) is then determined at 25° C. at a wavelength of 340 nm over 15 minutes in a spectrophotometric reader.
Each assay microtiter plate contains wells with vehicle instead of compound as controls for the non-inhibited enzyme (100% CTL; ‘HIGH’) and wells without acetyl-CoA as controls for non-specific NADH degradation (0% CTL; ‘LOW’).

The mark [1] stands for this setting: hACC2 construct lacking 128 N-terminal amino acids, coupled lactate dehydrogenase/pyruvate kinase reaction, 340 nm, 25° C.

Chain of human ACC2 (O00763 129-2458): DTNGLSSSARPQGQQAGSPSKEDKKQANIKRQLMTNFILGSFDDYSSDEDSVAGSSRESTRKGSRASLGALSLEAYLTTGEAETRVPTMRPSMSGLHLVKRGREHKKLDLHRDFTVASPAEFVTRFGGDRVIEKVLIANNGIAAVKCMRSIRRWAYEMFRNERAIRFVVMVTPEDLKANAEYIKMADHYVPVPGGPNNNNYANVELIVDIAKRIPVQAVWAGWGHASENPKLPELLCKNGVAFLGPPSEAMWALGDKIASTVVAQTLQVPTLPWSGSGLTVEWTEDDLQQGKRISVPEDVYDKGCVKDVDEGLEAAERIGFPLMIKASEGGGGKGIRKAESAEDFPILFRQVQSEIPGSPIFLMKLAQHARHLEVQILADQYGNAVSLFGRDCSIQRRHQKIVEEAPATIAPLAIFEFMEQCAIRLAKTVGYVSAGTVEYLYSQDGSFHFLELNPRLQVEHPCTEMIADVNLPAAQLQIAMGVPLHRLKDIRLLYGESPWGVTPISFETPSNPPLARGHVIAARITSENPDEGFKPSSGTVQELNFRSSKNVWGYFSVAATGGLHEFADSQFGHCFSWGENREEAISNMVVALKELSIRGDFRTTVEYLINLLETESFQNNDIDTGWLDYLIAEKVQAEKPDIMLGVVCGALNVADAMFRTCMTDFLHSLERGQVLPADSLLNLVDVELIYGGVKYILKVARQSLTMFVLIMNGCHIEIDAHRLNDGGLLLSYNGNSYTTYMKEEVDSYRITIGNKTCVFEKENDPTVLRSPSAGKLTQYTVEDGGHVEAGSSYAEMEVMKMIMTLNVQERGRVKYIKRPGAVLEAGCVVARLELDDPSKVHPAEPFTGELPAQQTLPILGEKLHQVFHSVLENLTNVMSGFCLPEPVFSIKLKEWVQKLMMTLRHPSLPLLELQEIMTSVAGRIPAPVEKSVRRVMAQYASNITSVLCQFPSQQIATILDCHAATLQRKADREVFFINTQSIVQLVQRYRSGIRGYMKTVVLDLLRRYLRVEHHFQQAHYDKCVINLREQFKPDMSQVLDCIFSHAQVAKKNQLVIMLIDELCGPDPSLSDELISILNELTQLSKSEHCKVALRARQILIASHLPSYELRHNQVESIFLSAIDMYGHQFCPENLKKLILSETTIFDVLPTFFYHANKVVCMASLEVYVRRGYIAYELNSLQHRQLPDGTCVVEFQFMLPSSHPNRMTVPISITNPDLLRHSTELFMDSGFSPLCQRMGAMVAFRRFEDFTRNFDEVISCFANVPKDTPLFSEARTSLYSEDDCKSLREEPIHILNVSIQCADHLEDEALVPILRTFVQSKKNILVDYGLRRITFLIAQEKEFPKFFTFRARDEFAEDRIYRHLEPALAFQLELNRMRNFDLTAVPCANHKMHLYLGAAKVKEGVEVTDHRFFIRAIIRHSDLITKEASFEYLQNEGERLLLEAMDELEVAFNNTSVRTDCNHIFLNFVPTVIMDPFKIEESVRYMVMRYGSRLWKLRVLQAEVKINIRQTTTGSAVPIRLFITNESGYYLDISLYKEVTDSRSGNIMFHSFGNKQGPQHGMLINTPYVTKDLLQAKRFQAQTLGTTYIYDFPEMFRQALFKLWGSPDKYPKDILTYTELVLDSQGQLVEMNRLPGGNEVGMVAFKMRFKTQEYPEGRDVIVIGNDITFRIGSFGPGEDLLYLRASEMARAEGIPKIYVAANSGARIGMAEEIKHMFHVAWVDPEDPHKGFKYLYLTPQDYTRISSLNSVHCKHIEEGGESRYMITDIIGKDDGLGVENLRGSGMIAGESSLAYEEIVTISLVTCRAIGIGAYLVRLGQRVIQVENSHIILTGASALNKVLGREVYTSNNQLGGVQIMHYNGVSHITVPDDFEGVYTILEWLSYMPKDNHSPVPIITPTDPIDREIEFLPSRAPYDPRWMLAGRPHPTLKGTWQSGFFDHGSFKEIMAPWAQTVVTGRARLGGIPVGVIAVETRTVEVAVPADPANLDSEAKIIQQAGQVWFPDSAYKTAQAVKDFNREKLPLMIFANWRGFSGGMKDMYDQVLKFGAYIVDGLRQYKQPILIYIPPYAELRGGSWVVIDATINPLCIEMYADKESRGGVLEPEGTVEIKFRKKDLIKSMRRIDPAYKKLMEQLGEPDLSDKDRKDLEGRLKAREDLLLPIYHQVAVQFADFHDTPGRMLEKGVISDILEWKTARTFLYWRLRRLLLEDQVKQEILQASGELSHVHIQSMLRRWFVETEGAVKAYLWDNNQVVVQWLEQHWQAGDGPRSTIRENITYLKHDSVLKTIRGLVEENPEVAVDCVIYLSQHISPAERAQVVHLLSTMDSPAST

Under setting [1], `CC(=O)N[C@@H](C)c1ccc(O[C@@H]2CCN(c3cnc(NC4CCC4)nc3)C2)cc1` [Example 1.1, N—((S)-1-(4-((R)-1-(2-(cyclobutylamino)pyrimidin-5-yl)pyrrolidin-3-yloxy)phenyl)ethyl)acetamide] returned an IC50 of 489 nM. Turning to `CC(=O)N[C@@H](C)c1ccc(OC2CCN(c3cnc(OC4CCC4)nc3)C2)cc1` (stereo partly shown) [Example 1.2], the midpoint of inhibition under setting [1], the IC50, lay at 565 nM.

For `CC(=O)N[C@@H](C)c1ccc(OC2CCN(c3cnc(OCC4CC4)nc3)C2)cc1` (stereo partly shown) [Example 1.3], the IC50 under setting [1] was 964 nM. Regarding `CCC(=O)Nc1nc(C)c(C(=O)N[C@@H](C)c2ccc(O[C@@H]3CCN(c4ncc(OCC5CC5(F)F)cn4)C3)cc2)s1` (stereo partly shown) [Example 1.4], the IC50 under setting [1] came out at 101 nM. Consider `C[C@H](NC(=O)C1CC1)c1ccc(O[C@@H]2CCN(c3ccnc(N(C)CC(F)F)n3)C2)cc1` [Example 2.1, N—((S)-1-(4-((R)-1-(2-((2,2-difluoroethyl)(methyl)amino)pyrimidin-4-yl)pyrrolidin-3-yloxy)phenyl)ethyl)cyclopropanecarboxamide], for which the IC50 turned out to be 65 nM. Under setting [1], `C[C@H](NC(=O)C1CC1)c1ccc(OC2CCN(c3ccnc(N4CCOCC4)n3)C2)cc1` (stereo partly shown) [Example 2.2] had an IC50 of 359 nM.

As to `CC(=O)Nc1nc(C)c(C(=O)N[C@@H](C)c2ccc(OC3CCN(c4ccnc(N5CCOCC5)n4)C3)cc2)s1` (stereo partly shown) [Example 2.3], under setting [1], it took 547 nM to reach half-maximal inhibition (IC50). Regarding `Cc1nocc1C(=O)N[C@@H](C)c1ccc(OC2CCN(c3ccnc(N4CCOCC4)n3)C2)cc1` (stereo partly shown) [Example 2.4], under setting [1], the IC50 is 208 nM. For `C[C@H](NC(=O)c1ccns1)c1ccc(OC2CCN(c3ccnc(N4CCOCC4)n3)C2)cc1` (stereo partly shown) [Example 2.5], under setting [1], the 50% inhibitory concentration (IC50) came to 535 nM. `C[C@H](NC(=O)c1cnco1)c1ccc(OC2CCN(c3ccnc(N4CCOCC4)n3)C2)cc1` (stereo partly shown) [Example 2.6] gave an IC50 under setting [1] of 320 nM. Regarding `C[C@H](NC(=O)c1cn[nH]c1)c1ccc(OC2CCN(c3ccnc(N4CCOCC4)n3)C2)cc1` (stereo partly shown) [Example 2.7], half-maximal inhibition under setting [1] (IC50) was put at 455 nM. As for `CCN(C)c1nccc(N2CCC(Oc3ccc([C@H](C)NC(=O)c4sc(NC(C)=O)nc4C)cc3)C2)n1` (stereo partly shown) [Example 2.8], the IC50 under setting [1] was determined as 245 nM. Same read-out and setting: the result for `CCN(C)c1nccc(N2CCC(Oc3ccc([C@H](C)NC(=O)c4sc(NC(=O)COC)nc4C)cc3)C2)n1` (stereo partly shown) [Example 2.9] reads 300 nM. As for `CC(=O)Nc1nc(C)c(C(=O)N[C@@H](C)c2ccc(OC3CCN(c4ccnc(N(C)CC(F)F)n4)C3)cc2)s1` (stereo partly shown) [Example 2.10], the IC50 under setting [1] was 115 nM.

Compound `COCC(=O)Nc1nc(C)c(C(=O)N[C@@H](C)c2ccc(OC3CCN(c4ccnc(N(C)CC(F)F)n4)C3)cc2)s1` (stereo partly shown) [Example 2.11] showed an IC50 under setting [1] of 115 nM. The same measure, in the same setting: the result for `Cc1oncc1C(=O)N[C@@H](C)c1ccc(OC2CCN(c3ccnc(N(C)CC(F)F)n3)C2)cc1` (stereo partly shown) [Example 2.12] reads 90 nM; that for `CCC(=O)N[C@@H](C)c1ccc(OC2CCN(c3ccnc(N(C)CC)n3)C2)cc1` (stereo partly shown) [Example 2.13], 85 nM; that for `CCN(C)c1nccc(N2CCC(Oc3ccc([C@H](C)NC(=O)C4CC4)cc3)C2)n1` (stereo partly shown) [Example 2.14], 63 nM. `C[C@H](NC(=O)c1cn[nH]c1)c1ccc(OC2CCN(c3ccnc(N(C)CC(F)F)n3)C2)cc1` (stereo partly shown) [Example 2.15] returned a half-maximal inhibitory concentration (IC50) under setting [1] of 70 nM. Turning to `CCC(=O)N[C@@H](C)c1ccc(OC2CCN(c3ccnc(N(C)CC(F)F)n3)C2)cc1` (stereo partly shown) [Example 2.16], the IC50 under setting [1] amounted to 45 nM. `CCN(C)c1nccc(N2CCC(Oc3ccc([C@H](C)NC(=O)c4cn[nH]c4)cc3)C2)n1` (stereo partly shown) [Example 2.17] registered a 50% inhibitory concentration (IC50) under setting [1] of 118 nM. In the case of `CCN(C)c1nccc(N2CCC(Oc3ccc([C@H](C)NC(=O)c4cnoc4C)cc3)C2)n1` (stereo partly shown) [Example 2.18], the IC50 under setting [1] was 130 nM. Regarding `CC(=O)Nc1nc(C)c(C(=O)N[C@@H](C)c2ccc(OC3CCN(c4ncnc(OCC5CC5)c4F)C3)cc2)s1` (stereo partly shown) [Example 2.19], under setting [1], the midpoint of inhibition, the IC50, lay at 39 nM.

For `C[C@H](NC(=O)c1cn[nH]c1)c1ccc(OC2CCN(c3ncnc(OCC4CC4)c3F)C2)cc1` (stereo partly shown) [Example 2.20], the IC50 under setting [1] was 53 nM.

As for `C[C@H](NC(=O)c1cnco1)c1ccc(OC2CCN(c3ncnc(OCC4CC4)c3F)C2)cc1` (stereo partly shown) [Example 2.21], 87 nM corresponded to half-maximal inhibition under setting [1] (IC50). Still for that read-out and setting: next, `Cc1oncc1C(=O)N[C@@H](C)c1ccc(OC2CCN(c3ncnc(OCC4CC4)c3F)C2)cc1` (stereo partly shown) [Example 2.22]: 48 nM; `CCC(=O)N[C@@H](C)c1ccc(OC2CCN(c3ncnc(OCC4CC4)c3F)C2)cc1` (stereo partly shown) [Example 2.23]: 144 nM; `COc1c(OCC2CC2)ncnc1N1CC[C@@H](Oc2ccc([C@H](C)NC(=O)c3cnco3)cc2)C1` [Example 2.27]: 103 nM. On to `COc1c(OCC2CC2)ncnc1N1CC[C@@H](Oc2ccc([C@H](C)NC(=O)C3(C)CC3)cc2)C1` [Example 2.29], for which, under setting [1], the IC50 was 204 nM. Compound `COc1c(OCC2CC2)ncnc1N1CC[C@@H](Oc2ccc([C@H](C)NC(=O)C3CC(F)C3)cc2)C1` (stereo partly shown) [Example 2.30] yielded an IC50 under setting [1] of 528 nM. For the compound `COc1c(OCC2CC2)ncnc1N1CC[C@@H](Oc2ccc([C@H](C)NC(=O)c3oc(NC(C)=O)nc3C)cc2)C1` [Example 2.32], 809 nM corresponded to half-maximal inhibition under setting [1] (IC50). Take `COc1c(OCC2CC2)ncnc1N1CC[C@@H](Oc2ccc([C@H](C)NC(=O)c3coc(NC(C)=O)n3)cc2)C1` [Example 2.33]: the half-inhibitory concentration (IC50) under setting [1] stood at 908 nM. Regarding `C[C@H](NC(=O)N(C)C)c1ccc(OC2CCN(c3ccnc(N(C)CC(F)F)n3)C2)cc1` (stereo partly shown) [Example 3.1], under setting [1], the IC50 amounted to 40 nM.

The compound `C[C@H](NC(=O)N(C)C)c1ccc(OC2CCN(c3ccnc(N4CCOCC4)n3)C2)cc1` (stereo partly shown) [Example 3.2] returned an IC50 under setting [1] of 227 nM. On the same count and under the same terms, the result for `CCNC(=O)N[C@@H](C)c1ccc(OC2CCN(c3ccnc(N4CCOCC4)n3)C2)cc1` (stereo partly shown) [Example 3.3] reads 445 nM; that for `C[C@H](NC(=O)N1CCC1)c1ccc(OC2CCN(c3ccnc(N4CCOCC4)n3)C2)cc1` (stereo partly shown) [Example 3.4], 1040 nM.

As for `C[C@H](NC(=O)Nc1ccon1)c1ccc(OC2CCN(c3ccnc(N4CCOCC4)n3)C2)cc1` (stereo partly shown) [Example 3.5], the half-maximal inhibitory concentration (IC50) under setting [1] was 299 nM. In the case of `C[C@H](NC(=O)N1CCOCC1)c1ccc(OC2CCN(c3ccnc(N4CCOCC4)n3)C2)cc1` (stereo partly shown) [Example 3.6], under setting [1], the IC50 was 605 nM. Same read-out and setting: the result for `CCN(C)C(=O)N[C@@H](C)c1ccc(OC2CCN(c3ccnc(N4CCOCC4)n3)C2)cc1` (stereo partly shown) [Example 3.7] reads 374 nM; that for `CNC(=O)N[C@@H](C)c1ccc(OC2CCN(c3ccnc(N4CCOCC4)n3)C2)cc1` (stereo partly shown) [Example 3.8], 260 nM. Take `CCN(C)c1nccc(N2CCC(Oc3ccc([C@H](C)NC(=O)N(C)C)cc3)C2)n1` (stereo partly shown) [Example 3.9]: the IC50 under setting [1] is 117 nM. The compound `C[C@H](NC(=O)N(C)C)c1ccc(OC2CCN(c3ncnc(OCC4CC4)c3F)C2)cc1` (stereo partly shown) [Example 3.10] returned an IC50 under setting [1] of 45 nM.

With `CNC(=O)N[C@@H](C)c1ccc(OC2CCN(c3ncnc(OCC4CC4)c3F)C2)cc1` (stereo partly shown) [Example 3.11], the IC50 under setting [1] came to 110 nM. On the same count and under the same terms, next, `C[C@H](NC(=O)N1CCOCC1)c1ccc(OC2CCN(c3ncnc(OCC4CC4)c3F)C2)cc1` (stereo partly shown) [Example 3.12]: 203 nM; `C[C@H](NC(=O)Nc1ccon1)c1ccc(OC2CCN(c3ncnc(OCC4CC4)c3F)C2)cc1` (stereo partly shown) [Example 3.13]: 50 nM.

As to `CCNC(=O)N[C@@H](C)c1ccc(OC2CCN(c3ncnc(OCC4CC4)c3F)C2)cc1` (stereo partly shown) [Example 3.14], the IC50 under setting [1] came out at 120 nM. In turn, `C[C@H](NC(=O)N(C)C)c1ccc(OC2CCN(c3ncnc(OCC(C)(C)O)c3F)C2)cc1` (stereo partly shown) [Example 3.15] returned a 50% inhibitory concentration (IC50) under setting [1] of 278 nM. For the compound `C[C@H](NC(=O)N(C)C)c1ccc(O[C@H]2CCN(c3nc(N4CCC5(CC5)C4)ncc3F)C2)cc1` [Example 3.16], under setting [1], half-maximal inhibition (IC50) was put at 104 nM. The compound `CCNC(=O)N[C@@H](C)c1ccc(O[C@@H]2CCN(c3nc(N4CCC5(CC5)C4)ncc3F)C2)cc1` [Example 3.17] registered an IC50 under setting [1] of 242 nM. On to `C[C@H](NC(=O)N(C)C)c1ccc(O[C@H]2CCN(c3nc(N4CCOCC4)ncc3F)C2)cc1` [Example 3.18], for which, under setting [1], the IC50 is 113 nM. The compound `C[C@H](NC(=O)N(C)C)c1ccc(O[C@@H]2CCN(c3ncnc(OCC(C)(F)F)c3F)C2)cc1` [Example 3.19] showed an IC50 under setting [1] of 155 nM. On the same count and under the same terms, the result for `CCNC(=O)N[C@@H](C)c1ccc(O[C@@H]2CCN(c3nc(N4CCOCC4)ncc3F)C2)cc1` [Example 3.20] reads 576 nM. `COC(=O)N[C@@H](C)c1ccc(O[C@@H]2CCN(c3ccnc(N(C)CC(F)F)n3)C2)cc1` [Example 4.1, Methyl (S)-1-(4-((R)-1-(2-((2,2-difluoroethyl)(methyl)amino)pyrimidin-4-yl)pyrrolidin-3-yloxy)phenyl)ethylcarbamate] registered an IC50 under setting [1] of 65 nM.

`COC(=O)N[C@@H](C)c1ccc(OC2CCN(c3ccnc(N4CCOCC4)n3)C2)cc1` (stereo partly shown) [Example 4.2] returned an IC50 under setting [1] of 244 nM.

As to `CCOC(=O)N[C@@H](C)c1ccc(OC2CCN(c3ccnc(N4CCOCC4)n3)C2)cc1` (stereo partly shown) [Example 4.3], under setting [1], the IC50 was found to be 494 nM. Regarding `CCN(C)c1nccc(N2CCC(Oc3ccc([C@H](C)NC(=O)OC)cc3)C2)n1` (stereo partly shown) [Example 4.4], the IC50 under setting [1] stood at 75 nM. Regarding `COC(=O)N[C@@H](C)c1ccc(OC2CCN(c3ncnc(OCC4CC4)c3F)C2)cc1` (stereo partly shown) [Example 4.5], 85 nM corresponded to half-maximal inhibition under setting [1] (IC50).

The compound `COC(=O)N[C@@H](C)c1ccc(OC2CCN(c3ncnc(OCC(C)(C)O)c3F)C2)cc1` (stereo partly shown) [Example 4.6] returned an IC50 under setting [1] of 222 nM.
